Measured values: PubChem BioAssay AID1918942 (Molecular Pharmacology Branch, DTP, NCI, 2023)

System: 743489-274-T-PDC complex spheroid viability
Experiment: Anticancer human tumor 743489-274-T-PDC patient-derived renal cell carcinoma cell line growth inhibition
Conditions: for IC50: curve of first compound; for viability, T/C: stronger effect = lower value
In short: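 Multicellular complex spheroids of tumor cells with human endothelial cells (HUVEC) and mesenchymal stem cells; the LSD1 inhibitor iadademstat was combined with standard-of-care or investigational agents. Top concentration at or near clinical Cmax, half-log dilutions; final DMSO ≤0.25%.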

[1] = second compound 0.1 µM, first compound 0.00949 µM
[2] = second compound 0.1 µM, first compound 0.03 µM
[3] = second compound 0.1 µM, first compound 0.0949 µM
[4] = second compound 0.1 µM, first compound 0.3 µM
[5] = second compound 0.1 µM, first compound 0.949 µM
[6] = second compound 0.1 µM, first compound 3 µM
[7] = second compound 0.316 µM, first compound 0.00949 µM
[8] = second compound 0.316 µM, first compound 0.03 µM
[9] = second compound 0.316 µM, first compound 0.0949 µM
[10] = second compound 0.316 µM, first compound 0.3 µM
[11] = second compound 0.316 µM, first compound 0.949 µM
[12] = second compound 0.316 µM, first compound 3 µM
[13] = second compound 1 µM, first compound 0.00949 µM
[14] = second compound 1 µM, first compound 0.03 µM
[15] = second compound 1 µM, first compound 0.0949 µM
[16] = second compound 1 µM, first compound 0.3 µM
[17] = second compound 1 µM, first compound 0.949 µM
[18] = second compound 1 µM, first compound 3 µM
[19] = second compound 3.16 µM, first compound 0.00949 µM
[20] = second compound 3.16 µM, first compound 0.03 µM
[21] = second compound 3.16 µM, first compound 0.0949 µM
[22] = second compound 3.16 µM, first compound 0.3 µM
[23] = second compound 3.16 µM, first compound 0.949 µM
[24] = second compound 3.16 µM, first compound 3 µM
[25] = second compound 10 µM, first compound 0.00949 µM
[26] = second compound 10 µM, first compound 0.03 µM
[27] = second compound 10 µM, first compound 0.0949 µM
[28] = second compound 10 µM, first compound 0.3 µM
[29] = second compound 10 µM, first compound 0.949 µM
[30] = second compound 10 µM, first compound 3 µM
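Note: spheroids exposed to compounds for 7 days before readout.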
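Throughout, for viability, T/C: 100% = DMSO vehicle control wells.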

Compound	IC50 (second compound 0.1 µM)	IC50 (second compound 0.316 µM)	IC50 (second compound 1 µM)	IC50 (second compound 3.16 µM)	IC50 (second compound 10 µM)	viability, T/C [1]	viability, T/C [2]	viability, T/C [3]	viability, T/C [4]	viability, T/C [5]	viability, T/C [6]	viability, T/C [7]	viability, T/C [8]	viability, T/C [9]	viability, T/C [10]	viability, T/C [11]	viability, T/C [12]	viability, T/C [13]	viability, T/C [14]	viability, T/C [15]	also measured
NS(=O)(=O)OCC1CC(n2ccc3c(NC4CCc5ccccc54)ncnc32)CC1O (stereo not given) + NC1CCC(NC2CC2c2ccccc2)CC1	> 3 µM	> 3 µM	> 3 µM	> 3 µM	> 3 µM	98.6%	103%	132%	133%	135%	144%	92.8%	103%	121%	135%	146%	147%	114%	108%	113%	viability, T/C [16]: 142%; viability, T/C [17]: 135%; viability, T/C [18]: 121%; viability, T/C [19]: 98.5%; viability, T/C [20]: 107%; viability, T/C [21]: 128%; viability, T/C [22]: 141%; viability, T/C [23]: 151%; viability, T/C [24]: 151%; viability, T/C [25]: 90.1%; viability, T/C [26]: 105%; viability, T/C [27]: 132%; viability, T/C [28]: 135%; viability, T/C [29]: 129%; viability, T/C [30]: 102%
Nc1ccccc1NC(=O)c1ccc(CNC(=O)OCc2cccnc2)cc1 + NC1CCC(NC2CC2c2ccccc2)CC1	0.932 µM	> 3 µM	1.43 µM	1.78 µM	1.27 µM	96.2%	89.4%	83.7%	85.4%	49.3%	31.2%	116%	92.2%	88.2%	82.8%	61.6%	52.8%	107%	94.8%	88.9%	viability, T/C [16]: 82.9%; viability, T/C [17]: 54.4%; viability, T/C [18]: 36.2%; viability, T/C [19]: 113%; viability, T/C [20]: 97.4%; viability, T/C [21]: 97%; viability, T/C [22]: 80.5%; viability, T/C [23]: 59.4%; viability, T/C [24]: 41%; viability, T/C [25]: 107%; viability, T/C [26]: 109%; viability, T/C [27]: 87.9%; viability, T/C [28]: 79.8%; viability, T/C [29]: 57.1%; viability, T/C [30]: 29.3%
O=C(C=Cc1cccc(S(=O)(=O)Nc2ccccc2)c1)NO + NC1CCC(NC2CC2c2ccccc2)CC1	> 3 µM	2.84 µM	2.23 µM	> 3 µM	1.91 µM	103%	94.4%	84.1%	67.9%	81.7%	62.1%	102%	96.5%	87.8%	80.9%	69.3%	47.4%	100%	107%	98.5%	viability, T/C [16]: 78.7%; viability, T/C [17]: 78.5%; viability, T/C [18]: 41.2%; viability, T/C [19]: 108%; viability, T/C [20]: 105%; viability, T/C [21]: 95.5%; viability, T/C [22]: 78.2%; viability, T/C [23]: 69.2%; viability, T/C [24]: 51.9%; viability, T/C [25]: 109%; viability, T/C [26]: 96.2%; viability, T/C [27]: 106%; viability, T/C [28]: 74.9%; viability, T/C [29]: 65.6%; viability, T/C [30]: 41.4%
